Results reported in patent US11006631B2, “Substituted pyrimidinyloxy pyridine derivatives as herbicides” (FMC Corporation, priority 2015, dated 2021).

Legend:
Assay type in all cases: in vivo
[1] = system: morningglory (Ipomoea coccinea); assay: Test C postemergence, morningglory
Description: (§1) Seeds of plant species selected from blackgrass (Alopecurus myosuroides), ryegrass, Italian (Italian ryegrass, Lolium multiflorum), wheat (winter wheat, Triticum aestivum), galium (catchweed bedstraw, Galium aparine), corn (Zea mays), crabgrass, large (large crabgrass, Digitaria sanguinalis), foxtail, giant (giant foxtail, Setaria faberii), lambsquarters (Chenopodium album), morningglory (Ipomoea coccinea), nutsedge, yellow (yellow nutsedge, Cyperus esculentus), pigweed (Amaranthus retroflexus), johnsongrass (Sorghum halepense), ragweed (common ragweed, Ambrosia elatior), soybean (Glycine max), barnyardgrass (Echinochloa crus-galli), oilseed rape (Brassica napus), waterhemp (common waterhemp, Amaranthus rudis), chickweed (common chickweed, Stellaria media), oat, wild (wild oat, Avena fatua), kochia (Kochia scoparia), and velvetleaf (Abutilon theophrasti) were planted in pots containing Redi-Earth® planting medium (Scotts Company, 14111 Scottslawn Road, Marysville, Ohio 43041) comprising spaghnum peat moss, vermiculite, wetting agent and starter nutrients and treated with postemergence applications of a test chemical formulated in a non-phytotoxic solvent mixture which included a surfactant. Plants ranged in height from 2 to 18 cm (1- to 4-leaf stage) for postemergence treatments. Treated plants and controls were maintained in a greenhouse for 13 to 15 days, after which time all species were compared to controls and visually evaluated. Plant response ratings, summarized in Table C, are based on a scale of 0 to 100 where 0 is no effect and 100 is complete control. A dash (-) response means no test result.

[2] = system: pigweed (Amaranthus retroflexus); assay: Test C postemergence, pigweed
Description: as §1

[3] = system: barnyardgrass (Echinochloa crus-galli); assay: Test B flooded paddy test, barnyardgrass; conditions: Flood, 250 g ai/ha; scale of 0 to 100
Outline: (§2)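 Plants grown to 2-leaf stage; pots flooded 3 cm above soil and compound applied directly into paddy water, depth held throughout. Visual rating against untreated controls after 13 to 15 days in greenhouse, 0 (no effect) to 100 (complete control).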

[4] = system: galium (catchweed bedstraw, Galium aparine); assay: Test A postemergence, galium; conditions: 0 to 100 scale
Outline: (§3)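 Test chemicals in solvent with surfactant applied preemergence as directed soil spray, or postemergence to plants at one- to two-leaf stage (2–10 cm), in loam–sand soil. Injury visually rated versus untreated controls after about 10 days in greenhouse, on a 0 (no effect) to 100 (complete control) scale.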

[5] = system: velvetleaf (Abutilon theophrasti); assay: Test C postemergence, velvetleaf
Description: as §1

[6] = system: foxtail, giant (giant foxtail, Setaria faberii); assay: Test A postemergence, foxtail, giant; conditions: 0 to 100 scale
Outline: as §3

[7] = system: foxtail, giant (giant foxtail, Setaria faberii); assay: Test C postemergence, foxtail, giant
Description: as §1

[8] = system: oilseed rape (Brassica napus); assay: Test C postemergence, oilseed rape
Description: as §1

[9] = system: johnsongrass (Sorghum halepense); assay: Test C postemergence, johnsongrass
Description: as §1

[10] = system: ducksalad (Heteranthera limosa); assay: Test B flooded paddy test, ducksalad; conditions: Flood, 250 g ai/ha; scale of 0 to 100
Outline: as §2

corn (Zea mays) = assay: Test C postemergence, corn
Description: as §1

[11] = system: ragweed (common ragweed, Ambrosia elatior); assay: Test C postemergence, ragweed
Description: as §1

[12] = system: wheat (winter wheat, Triticum aestivum); assay: Test C postemergence, wheat
Description: as §1, with “Plants ranged in height from 2 to 18 cm (1- to 4-leaf stage) for postemergence treatments.” left out, “Plant response ratings, summarized in Table C, are based on a scale of 0 to 100 where 0 is no effect and 100 is complete control. A dash (-) response means no test result.” left out

[13] = system: waterhemp (common waterhemp, Amaranthus rudis); assay: Test C postemergence, waterhemp
Description: as §1

[14] = system: ragweed (common ragweed, Ambrosia elatior); assay: Test A preemergence, ragweed; conditions: 0 to 100 scale
Outline: as §3

rice (Oryza sativa) = assay: Test B flooded paddy test, rice; conditions: Flood, 250 g ai/ha; scale of 0 to 100
Outline: as §2

[15] = system: ryegrass, Italian (Italian ryegrass, Lolium multiflorum); assay: Test A preemergence, ryegrass, Italian; conditions: 0 to 100 scale
Outline: as §3

[16] = system: sedge, umbrella (small-flower umbrella sedge, Cyperus difformis); assay: Test B flooded paddy test, sedge, umbrella; conditions: Flood, 250 g ai/ha; scale of 0 to 100
Outline: as §2

FC(F)c1cc(-c2ncccc2Oc2ncc(Cl)cn2)on1 [Compound 5, 5-chloro-2-[[2-[3-(difluoromethyl)-5-isoxazolyl]-3-pyridinyl]oxy]pyrimidine]
Plant response rating, Morningglory ([1]; 16 g ai/ha): 75 | Plant response rating, Morningglory ([1]; 31 g ai/ha): 65 | Plant response rating, Morningglory ([1]; 62 g ai/ha): 65 | Plant response rating, Morningglory ([1]; 125 g ai/ha): 85 | Plant response rating, Pigweed ([2]; 16 g ai/ha): 65 | Plant response rating, Pigweed ([2]; 31 g ai/ha): 75 | Plant response rating, Pigweed ([2]; 62 g ai/ha): 75 | Plant response rating, Pigweed ([2]; 125 g ai/ha): 85 | Plant response rating, Barnyardgrass [3]: 0 | Plant response rating, Galium ([4]; 31 g ai/ha): 40 | Plant response rating, Galium ([4]; 125 g ai/ha): 60 | Plant response rating, Velvetleaf ([5]; 16 g ai/ha): 40 | Plant response rating, Velvetleaf ([5]; 31 g ai/ha): 50 | Plant response rating, Velvetleaf ([5]; 62 g ai/ha): 70 | Plant response rating, Velvetleaf ([5]; 125 g ai/ha): 60 | Plant response rating, Foxtail, Giant ([6]; 31 g ai/ha): 0 | Plant response rating, Foxtail, Giant ([6]; 125 g ai/ha): 10 | Plant response rating, Foxtail, Giant ([7]; 16 g ai/ha): 0 | Plant response rating, Foxtail, Giant ([7]; 31 g ai/ha): 5 | Plant response rating, Foxtail, Giant ([7]; 62 g ai/ha): 5 | Plant response rating, Foxtail, Giant ([7]; 125 g ai/ha): 10 | Plant response rating, Oilseed Rape ([8]; 16 g ai/ha): 5 | Plant response rating, Oilseed Rape ([8]; 31 g ai/ha): 60 | Plant response rating, Oilseed Rape ([8]; 62 g ai/ha): 60 | Plant response rating, Oilseed Rape ([8]; 125 g ai/ha): 85 | Plant response rating, Johnsongrass ([9]; 16 g ai/ha): 0 | Plant response rating, Johnsongrass ([9]; 31 g ai/ha): 0 | Plant response rating, Johnsongrass ([9]; 62 g ai/ha): 5 | Plant response rating, Johnsongrass ([9]; 125 g ai/ha): 10 | Plant response rating, Ducksalad [10]: 75 | Plant response rating, Corn (corn (Zea mays); 16 g ai/ha): 5 | Plant response rating, Corn (corn (Zea mays); 31 g ai/ha): 5 | Plant response rating, Corn (corn (Zea mays); 62 g ai/ha): 5 | Plant response rating, Corn (corn (Zea mays); 125 g ai/ha): 5 | Plant response rating, Ragweed ([11]; 16 g ai/ha): 5 | Plant response rating, Ragweed ([11]; 31 g ai/ha): 40 | Plant response rating, Ragweed ([11]; 62 g ai/ha): 35 | Plant response rating, Ragweed ([11]; 125 g ai/ha): 65 | Plant response rating, Wheat ([12]; 16 g ai/ha): 5 | Plant response rating, Wheat ([12]; 31 g ai/ha): 5 | Plant response rating, Waterhemp ([13]; 16 g ai/ha): 60 | Plant response rating, Waterhemp ([13]; 31 g ai/ha): 65 | Plant response rating, Waterhemp ([13]; 62 g ai/ha): 75 | Plant response rating, Waterhemp ([13]; 125 g ai/ha): 85 | Plant response rating, Ragweed ([14]; 31 g ai/ha): 0 | Plant response rating, Ragweed ([14]; 125 g ai/ha): 10 | Plant response rating, Rice (rice (Oryza sativa)): 0 | Plant response rating, Ryegrass, Italian ([15]; 31 g ai/ha): 0 | Plant response rating, Ryegrass, Italian ([15]; 125 g ai/ha): 0 | Plant response rating, Sedge, Umbrella [16]: 80
